Test results: patent publication US20150216870A1, “Combination of PI3K Inhibitor and C-Met Inhibitor” (Novartis AG, priority 2012, published 2015)
Entries after “also recorded” stand apart in the source; their conditions may differ.

Key:
[1] = tested on: HCC2935; assay: Cell viability (CellTiterGlo) combination dose matrix in HCC2935; type: cell-based, human; settings: combination with c-Met inhibitor, 72 h, excluding highest concentration
Procedure: (§3) Compound stocks of both compounds are individually prepared in DMSO. Compounds are serially diluted using a Tecan dispenser to cover a ˜1000× range of concentrations. […] Both single agent and combinations are tested at multiple concentrations, along with controls and one self-cross.
(§4) The cell lines used in this study are purchased from American Type Cell Collection, including human non small cell lung cancer cell lines EBC-1 (which bears c-Met amplification), NCI-H1993 (which bears c-MET amplified), NCI-H1648 (which bears c-Met amplification), NCI-H1573 (which bears c-Met amplification and KRAS mutation) and HCC2935 (EGFR mutation). All cell lines are maintained in their respective culture medium as specified by the provider.
(§5) For the assessment of combination effects, cells are seeded into 384-well plates at 500 cells/well and incubated overnight. […]
(§6) Effects of single agents as well as their combination on cell viability is assessed after 72 hours of incubation at 37° C./5% CO2 by quantification of cellular ATP levels (CellTiterGlo, Promega) using 25 μL reagent/well and n=2 replicate plates per condition. The number/viability of cells at time of compound addition is likewise assessed and used to estimate the population doubling time of a cell line.
(§7) For untreated and treated levels U and T, inhibition is calculated using the formula I=1−T/U, which ranges from 0% to 100% for complete inhibition. […]
(§8) The Loewe expectation [Loewe S., Ergebn Physiol 27: 47-187 (1928)) is calculated at each dose pair CX,Y by finding the inhibition ILoewe such that (CX/ICX)+(CY/ICY)=1, and ICX,Y are the effective concentrations at ILoewe for the fitted single agent curves, using numerical optimization [Berenbaum M C, J Theor Biol 114: 413-431 (1985)]. The “synergy score” S is calculated by averaging the difference between Idata and ILoewe across all the tested combination dose points, excluding the highest concentration point in the dose matrix, which is most likely to be dominated by drug off-target effects. […]

[2] = tested on: NCI-H1573; assay: Cell viability (CellTiterGlo) combination dose matrix in NCI-H1573; type: cell-based, human; settings: combination with c-Met inhibitor, 72 h, excluding highest concentration
Procedure: as §3, §4, §5, §6, §7, §8

[3] = tested on: EBC-1; assay: Cell viability (CellTiterGlo) combination dose matrix in EBC-1; type: cell-based, human; settings: combination with c-Met inhibitor, 72 h, excluding highest concentration, 0 no inhibition, 1 = 100% inhibition/stasis, 2 = cell death
Procedure: as §3, §4, §5, §6, §7, §8

[4] = tested on: NCI-H1648; assay: Cell viability (CellTiterGlo) combination dose matrix in NCI-H1648; type: cell-based, human; settings: combination with c-Met inhibitor, 72 h, excluding highest concentration
Procedure: as §3, §4, §5, §6, §7, §8

[5] = tested on: NCI-H1993; assay: Cell viability (CellTiterGlo) combination dose matrix in NCI-H1993; type: cell-based, human; settings: combination with c-Met inhibitor, 72 h, excluding highest concentration
Procedure: as §3, §4, §5, §6, §7, §8

[6] = tested on: NCI-H1993 human non-small cell lung carcinoma xenograft; assay: NCI-H1993 xenograft tumor growth inhibition and tumor growth delay; type: in vivo, athymic nude mice; settings: COMPOUND D 30 mg/kg p.o. qd to end
Text: In this experiment, the NCI-H1993 human non-small cell lung carcinoma xenograft model is used to assess the anti-tumor efficacy of the PI3K inhibitor COMPOUND D and c-Met inhibitor 2-fluoro-N-methyl-4-[7-quinolin-6-yl-methyl)-imidazo[1,2-b][1,2,4]triazin-2yl]benzamide as single agents or in combination. NCI-H1993 tumor cells obtained from the American Type Culture Collection (ATCC) are derived from a lymph node metastasis of a patient having a stage 3A lung adenocarcinoma and a history of smoking.
(§1) Female athymic nude mice (Crl:NU (Ncr)-Foxn1^nu, Charles River) are 8 weeks old, and have a body weight (BW) range of 16.1-26.2 g, on D1 of the study. The animals are fed ad libitum water (reverse osmosis, 1 ppm CI) and NIH 31 Modified and Irradiated Lab Diet® consisting of 18.0% crude protein, 5.0% crude fat, and 5.0% crude fiber. The mice are housed on irradiated Enrich-O'cobs™ Laboratory Animal Bedding in static microisolators on a 12-hour light cycle at 20-22° C. (68-72° F.) and 40-60% humidity.
The NCI-H1993 tumor line is obtained from the American Type Culture Collection and maintained at DRS_NC in RPMI-1640 medium containing 100 unites/penicillin G sodium, 100 µg/mL streptomycin sulfate, 25 µg/mL gentamicin, 10% fetal bovine serum, and 2 mM glutamine. The tumor cells are cultured in tissue culture flasks in a humidified incubator at 37° C. in an atmosphere of 5% CO2 and 95% air.
The tumor cells used for implementation are harvested during log phase growth and resuspended in cold PBS containing 50% Matrigel™ (BD Biosciences). Each mouse is injected subcutaneously in the right flank with 1×10^7 cells (0.2 mL cell suspension). Tumors are calipered in two dimensions to monitor growth as their mean volume approached the desired 200-250 mm^3 range. Tumor size, in mm^3, was calculated from: Tumor Volume=(width^2×length)/2, where width and length (in mm) are measurements of the tumor. Tumor weight can be estimated with the assumption that 1 mg is equivalent to 1 mm^3 of tumor volume. Fourteen days after tumor cell implantation, on D1 of the study, mice with individual tumor volumes of 172-256 mm^3 are sorted into groups of ten mice, with group mean tumor volumes of 206-215 mm^3.
The c-Met inhibitor 2-fluoro-N-methyl-4-[7-quinolin-6-yl-methyl)-imidazo[1,2-b][1,2,4]triazin-2yl]benzamide (HCl salt, 84.98% free base) is stored at 4° C. and is added to a volume of deionized water equal to 1/2 of the final volume and sonicated until dissolved to obtain a uniform 2× suspension. An equal volume of 0.5% methylcellulose: 0.1% Tween® 80 is added to provide a 1.77 mg/mL solution with final vehicle concentrations of 0.25% methylcellulose and 0.05% Tween® 80 in deionized water (Vehicle 1). Fresh solutions are prepared once daily for the […]. dosing and stored at room temperature until the a.m. dosing.
COMPOUND D is suspended at 3.0 mg/mL in 0.5% methylcellulose in deionized water. The vehicle is added in portions equal to 1/3 of the final volume. The suspension is vortexed after each addition, and then finally probe sonicated on ice to prepare a homogeneous white suspension. A fresh suspension is prepared weekly, stored at 4° C., and re-suspended prior to dosing.
The c-MET inhibitor and the vehicle is each administered via oral gavage (p.o.) twice daily for the duration of the study (b.i.d. to end). COMPOUND D is administered via oral gavage (p.o.) once daily for the duration of the study (qd to end). In combination therapies, COMPOUND D is dosed within 30 minutes after the c-Met inhibitor. In all groups, the dosing volume of 10 mL/kg (0.2 mL/20 g mouse) is scaled to the weight of each animal as determined on the day of dosing, except on weekends when the previous BW is carried forward.
The groups of nude mice (n=10/group) are treated as follows. Group 1 receive Vehicle 1 and Vehicle 2 and serve as controls for the study. […] Group 3 receives 30 mg/kg COMPOUND D monotherapy once daily for the duration of the study (qd to end).

[7] = Toxicity (body weight, deaths) in NCI-H1993 xenograft study; type: in vivo; settings: COMPOUND D 30 mg/kg p.o. qd to end
Procedure: (§2) Animals are weighed on Days 1-5, on each treatment day (except weekends), and twice weekly thereafter, until the end of the study. The maximum group mean body weight (BW) loss is determined for the interval between D1 and D20 as well as for the entire study. Group mean BW nadir determinations exclude measurements taken after more than 50% of the assessable mice in the group have exited the study, and also exclude any animal that was classified as a non-treatment related (NTR) death during the study. Acceptable toxicity for the maximum tolerated dose (MTD) is defined as a group mean BW loss of less than 15% during the test, and not more than one TR death among ten animals. Any animal with BW losses exceeding 15% for three consecutive measurements, or with a BW loss exceeding 20% for one measurement, are euthanized, and classified as a TR death unless it was the first death in the group. A death is classified as NTR if there was no evidence that the death is related to treatment side effects and the death occurs more than 14 days after dosing ended. NTR deaths are categorized as NTRa (due to accident or error), NTRu (due to unknown causes), or NTRm (necropsy-confirmed tumor dissemination by invasion and/or metastasis). To conserve animals while providing maximum information, the first death in a group was classified as NTRu; such an NTR death was to be reclassified as TR if two subsequent TR deaths are recorded in the same group.

[8] = Toxicity (deaths) in U-87 MG xenograft study; type: in vivo; settings: temozolomide 100 mg/kg p.o. qd x5
Text: as §2, with “the study. Group mean” for “the study. The maximum group mean body weight (BW) loss is determined for the interval between D1 and D20 as well as for the entire study. Group mean”, “the group had exited the” for “the group have exited the”, “and also excluded any animal” for “and also exclude any animal”, “classified as an NTR death during” for “classified as a non-treatment related (NTR) death during”, “classified as Non-Treatment Related (NTR) if there” for “classified as NTR if there”

[9] = tested on: U-87 MG human glioblastoma xenograft; assay: U-87 MG xenograft tumor growth inhibition and tumor growth delay; type: in vivo, nude mice; settings: temozolomide 100 mg/kg p.o. qd x5
Procedure: In this experiment, the U-87 MG human glioblastoma xenograft model is used to assess the anti-tumor efficacy of the PI3K inhibitor COMPOUND C and c-Met inhibitor 2-fluoro-N-methyl-4-[7-quinolin-6-yl-methyl)-imidazo[1,2-b][1,2,4]triazin-2yl]benzamide as single agents or in combination. U-87 MG tumor cells obtained from the National Cancer Institute are reported to be homozygous for likely oncogenic variants of CDKN2A, CDKN2C, CDKN2a, and PTEN; no mutations are detected in MET, PIK3CA, or 58 other genes that are frequently altered in neoplastic cells; and HGF expressing.
Mice are treated daily for 21 days with 17.7 and 35.3 mg/kg of the c-Met inhibitor and 32.7 mg/kg COMPOUND C monotherapies, and with the c-Met inhibitor/COMPOUND C dual therapy at 17.7:32.7. An c-Met inhibitor/COMPOUND C combination at the 58.8:5.4 mg/kg dose ratio was included in the study. The control mice received both vehicles, and a standard preclinical temozolomide regimen monitored tumor model performance. The oral treatments began on Day 1 (D1) in nude mice with established subcutaneous tumors. Each animal was euthanized when its tumor reached the predetermined 2000 mm3 endpoint volume, or on D60, whichever came first. The study was terminated on D51. […] Overall efficacy was determined from the times required for tumors to progress to the volume endpoint, and from D51 survival and regression rates. This report describes the methods and results of the U87MG-e326 tumor growth delay experiment.
as §1, with “The” for “Female athymic nude mice (Crl:NU (Ncr)-Foxn1^nu, Charles River) are 8 weeks old, and have a body weight (BW) range of 16.1-26.2 g, on D1 of the study. The”
The U-87 MG tumor line is obtained from the American Type Culture Collection and maintained by serial engraftment in nude mice. A tumor fragment (1 mm^3) is implanted subcutaneously into the right flank of each test mouse. Tumors are calipered in two dimensions to monitor growth as their mean volume approached the desired 100-150 mm^3 range. Tumor size, in mm^3, was calculated from: Tumor Volume=(width^2×length)/2, where width and length (in mm) are measurements of the tumor. Tumor weight can be estimated with the assumption that 1 mg is equivalent to 1 mm^3 of tumor volume. Fourteen days after tumor cell implantation, on D1 of the study, mice with individual tumor volumes of 63-196 mm^3 are sorted into seven groups, with group mean tumor volumes of 122-127 mm^3.
The c-Met inhibitor 2-fluoro-N-methyl-4-[7-quinolin-6-yl-methyl)-imidazo[1,2-b][1,2,4]triazin-2yl]benzamide (di-HCl salt, 84.98% free base) is stored at 4° C. and is added to deionized water at 2× the final concentration and sonicated until dissolved. An equal volume of 0.5% methylcellulose and 0.1% Tween® 80 in deionized water is added to provide a 5.884 mg/mL dosing solution in 0.25% methylcellulose and 0.05% Tween® 80 in deionized water (Vehicle 1). Portions of this solution are diluted with Vehicle 1 to provide 3.53 and 1.765 mg/mL dosing solutions.
COMPOUND C (HCl salt, 91.85% free base) is stored at −20° C. and is added to 1% Tween® 80 in deionized water and sonicated to obtain a uniform suspension at 2× the final concentration. […] The 0.544 mg/mL dosing suspension is obtained by diluting a portion of the first suspension with Vehicle 2.

Structure (SMILES)	MaxGI (GImax, combination effectiveness) [1]	MaxGI (GImax, combination effectiveness) [2]	MaxGI (GImax, combination effectiveness) [3]	MaxGI (GImax, combination effectiveness) [4]	MaxGI (GImax, combination effectiveness) [5]	% TGD [6]	D20 tumor growth inhibition / activity (in words) [6]	T-C [6]	T/C or T/T0 ([6]; D20)	Median TTE ([6]; endpoint 600 mm3)	Regression: PR ([6]; number of animals)	overall survival (in words) ([6]; vs control Group 1)	Deaths [7]	tolerability (in words) [7]	Deaths [8]	% TGD [9]	T/C or T/T0 ([9]; D13)	Median TTE ([9]; endpoint 2000 mm3)	Regress. ([9]; number of animals)
Cn1c(=O)n(-c2ccc(C(C)(C)C#N)cc2)c2c3cc(-c4cnc5ccccc5c4)ccc3ncc21 [COMPOUND A, 2-methyl-2-[4-(3-methyl-2-oxo-8-quinolin-3-yl-2,3-dihydro-imidazo[4,5-c]quinolin-1-yl)-phenyl]-propionitrile]	1.36	1.90	1.90	1.72	1.33														
Cc1nc(NC(=O)N2CCC[C@H]2C(N)=O)sc1-c1ccnc(C(C)(C)C(F)(F)F)c1 [COMPOUND D, (S)-Pyrrolidine-1,2-dicarboxylic acid 2-amide 1-({4-methyl-5-[2-(2,2,2-trifluoro-1,1-dimethyl-ethyl)-pyridin-4-yl]-thiazol-2-yl}-amide)]	0.77	0.57	1.87	1.37	1.21	−4%	non-significant median tumor growth acceleration; also recorded: not significantly active (inactive)	-1.1 days	117%	24.0 days	1 PR	non-significantly briefer overall survival than control	(0)	Well-tolerated					
Cn1nnc2c(C(N)=O)ncn2c1=O [Temozolomide, reference compound]															(0)	51%	48%	17.7 days	0
